Measured values published in US9593084B2 (Parion Sciences, Inc., priority 2012, dated 2017).
Marks after values point to notes of the source that are not given here.

Experiments:
Sheep MCC = test: Mucociliary clearance (MCC) studies in sheep; format: in vivo
In short: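 Adult sheep, nasally intubated, received aerosolized test agent (4 mL, ± HS immediately after) over 10-15 min; 99mTc-sulfur colloid aerosol given 4 or 8 h later. Lung radioactivity counted by gamma camera every 5 min for 1 h; clearance analysed as initial 30-min slope, AUC over 1 h, and maximum 1-h clearance.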

[1] = Plasma potassium levels in sheep of the MCC study; format: in vivo
Method: In these studies, adult sheep were restrained and nasally intubated with an endotracheal tube. Aerosolized test articles were administered over 10-15 minutes to sheep. Radiolabeled ^99mTc-sulfur colloid (TSC, 3.1 mg/mL; containing approximately 20 mCi) was then administered at a specified time four or eight hours after test article. The radiolabeled aerosol was administered through the endotracheal tube for about 5 minutes. The sheep were then extubated, and total radioactive counts in the lung were measured every 5 minutes for a 1-hour observation period. The rate of radiolabel clearance from the lung is representative of the MCC rate in the animal. The advantage of this system is that it closely simulates the human lung environment. The model also allows for the collection of simultaneous PK/PD information through plasma and urine sampling over the test period. There are also several techniques to measure the drug concentrations on the airway surface during the MCC measurements. These include the collection of exhaled breath condensates or a filter paper method to obtain ASL via bronchoscopy.
The compound of Comparative Example 1 can be seen on page 15 of US 2005/0080093 and as Compound 2 on page 90 of WO 2008/031048, and as Compound 2 on pages 42-43 of WO 2008/031028. […] In order to evaluate this potential, it is beneficial to have MCC activity in vivo and not cause elevation of plasma potassium at the useful dose. One model to assess this is the sheep MCC model described below.

[2] = sheep, aerosol, 0.24 nmol/kg (3 μM), MCC at 4 h post-dose
[3] = sheep, aerosol, 0.24 nmol/kg (3 μM), MCC at 8 h post-dose

## N=C(NCCCCc1ccc(C[C@H](N)C(=O)Nc2ccc(CCCN(C[C@H](O)[C@@H](O)[C@H](O)[C@H](O)CO)C[C@H](O)[C@@H](O)[C@H](O)[C@H](O)CO)cc2)c2ccccc12)NC(=O)c1nc(Cl)c(N)nc1N [Compound 33, 3,5-diamino-N—(N-(4-(4-((S)-2-amino-3-(4-(3-(bis((2S,3R,4R,5R)-2,3,4,5,6-pentahydroxyhexyl)amino)propyl)phenylamino)-3-oxopropyl)naphthalen-1-yl)butyl)carbamimidoyl)-6-chloropyrazine-2-carboxamide]
Sheep MCC; sheep MCC model
  benefit to risk ratio: greater than 1000
Sheep MCC; sheep, 0.24 nmol/kg (3 μM), 4 h post-dose
  effect on MCC compared to vehicle: enhanced MCC compared to vehicle control
Sheep MCC; sheep, 0.240 nmol/kg (30 μM), MCC at 4 h post-dose
  Initial Slope (4.0-4.5 h): 37.5* (4)
Sheep MCC; sheep, 0.240 nmol/kg, MCC at 4 h post-dose
  AUC (% CI × h): 17.4* (4) % CI × h
Sheep MCC; sheep, 7% HS dosed immediately following 0.24 nmol/kg, MCC eight hours after combined dosing
  effect of hypertonic saline (HS) on the MCC effect: HS increased the effect of Compound 33 on MCC
Sheep MCC; sheep, 8 hours post dose
  duration of action on MCC vs. vehicle: enhanced duration action of MCC vs. vehicle
Sheep MCC; [2]
  AUC (% Cl-h): 17.4* (4) % Cl-h
  Initial Slope (4.0-4.5 h): 37.5* (4)
Sheep MCC; [3]
  AUC (% Cl-h): 11.7* (4) % Cl-h
  Initial Slope (8.0-8.5 h): 25.8* (4)
Sheep MCC; sheep, solution concentration given beside the dose
  MCC Highest Submaximal Dose: <0.24 nmol/kg (3 μM)
Sheep MCC; sheep, top dose without plasma potassium elevation vs MCC highest submaximal dose
  Therapeutic Ratio (Benefit/Risk): >100
[1]; sheep of the MCC study, at efficacious dose
  effect on plasma potassium: free of potassium elevations
[1]; sheep, versus Comparative Example 1
  Therapeutic Index, times greater renal safety than Comparative Example 1: more than 1,000
